In ChEMBL document CHEMBL6074662, “Antibacterial, Antibiofilm, and Anti-inflammatory Effects of a Novel Thrombin-Derived Peptide in Sepsis Models: Insights into Underlying Mechanisms” (J Med Chem, 2024):

Assays:
Staphylococcus aureus [1] = experiment: Synergistic antibacterial activity against methicillin-resistant Staphylococcus aureus CCARM 3089 incubated for 24 hrs in presence of Ciprofloxacin by broth microdilution method; assay type: functional
Enterococcus faecium = experiment: Antibacterial activity against vancomycin-resistant Enterococcus faecium ATCC 51559 incubated for 24 hrs by CLSI based broth microdilution method; assay type: functional
[2] = Hemolytic activity in sheep RBC incubated for 1 hr by absorbance based assay; assay type: toxicity, cell-based, Ovis aries; details: erythrocyte
Pseudomonas aeruginosa [3] = experiment: Synergistic antibacterial activity against multi-drug resistant Pseudomonas aeruginosa CCARM 2095 assessed as fractional inhibitory concentration index by measuring ratio of MIC of Oxacillin in presence of compound to MIC to Oxacillin incubated for 24 hrs by broth microdilution method; assay type: functional
Acinetobacter baumannii = experiment: Antibacterial activity against multidrug-resistant Acinetobacter baumannii 329-53 incubated for 24 hrs by CLSI based broth microdilution method; assay type: functional
Escherichia coli [4] = experiment: Antibacterial activity against Escherichia coli KCTC 1682 incubated for 24 hrs in presence of human serum by CLSI based broth microdilution method; assay type: functional
Pseudomonas aeruginosa [5] = experiment: Synergistic antibacterial activity against multi-drug resistant Pseudomonas aeruginosa CCARM 2095 incubated for 24 hrs in presence of Chloramphenicol by broth microdilution method; assay type: functional
Pseudomonas aeruginosa [6] = experiment: Antibacterial activity against Pseudomonas aeruginosa KCTC 1637 incubated for 24 hrs by CLSI based broth microdilution method; assay type: functional
RAW264.7 [7] = experiment: Anti-inflammatory activity in mouse RAW264.7 cells assessed as inhibition of LPS-induced NO production at 5 uM pretreated for 1 hr followed by LPS treatment for 16 hrs by Griess assay relative to control; assay type: functional; details: time 17 hrs
[8] = Effect on secondary structure of drug in SDS assessed as fold increase in formation of alpha-helical conformation at 150 uM by CD analysis relative to HVF18; assay type: physicochemical
Pseudomonas aeruginosa [9] = experiment: Synergistic antibacterial activity against multi-drug resistant Pseudomonas aeruginosa CCARM 2095 assessed as MIC of Chloramphenicol incubated for 24 hrs by broth microdilution method; assay type: functional
[10] = Hydrophobicity of compound assessed as retention time by RP-HPLC analysis; assay type: physicochemical
Salmonella typhimurium = experiment: Antibacterial activity against Salmonella typhimurium KCTC 1926 incubated for 24 hrs by CLSI based broth microdilution method; assay type: functional, Salmonella enterica subsp. enterica serovar Typhimurium; details: Salmonella enterica
Escherichia coli [11] = experiment: Induction of inner membrane permeabilization in Escherichia coli KCTC 1682 at 0.5 times MIC by PI staining based flow cytometry (reference value: 1.51 %); assay type: functional
Staphylococcus aureus [12] = experiment: Synergistic antibacterial activity against methicillin-resistant Staphylococcus aureus CCARM 3089 assessed as fractional inhibitory concentration index incubated for 24 hrs in presence of Chloramphenicol by broth microdilution method; assay type: functional
Pseudomonas aeruginosa [13] = experiment: Synergistic antibacterial activity against multi-drug resistant Pseudomonas aeruginosa CCARM 2095 incubated for 24 hrs in presence of Ciprofloxacin by broth microdilution method; assay type: functional
Pseudomonas aeruginosa [14] = experiment: Synergistic antibacterial activity against multi-drug resistant Pseudomonas aeruginosa CCARM 2095 assessed as fractional inhibitory concentration index by measuring ratio of MIC of Ciprofloxacin in presence of compound to MIC to Ciprofloxacin incubated for 24 hrs by broth microdilution method; assay type: functional
[15] = test system: Staphylococcus epidermidis; experiment: Antibacterial activity against Staphylococcus epidermidis KCTC 1917 incubated for 24 hrs by CLSI based broth microdilution method; assay type: functional
Staphylococcus aureus [16] = experiment: Synergistic antibacterial activity against methicillin-resistant Staphylococcus aureus CCARM 3089 assessed as fractional inhibitory concentration index by measuring ratio of MIC of compound in presence of Ciprofloxacin to MIC to compound incubated for 24 hrs by broth microdilution method; assay type: functional
RAW264.7 [17] = experiment: Anti-inflammatory activity in mouse RAW264.7 cells assessed as decrease in LPS-induced ROS production at 5 uM pretreated for 1 hr followed by LPS treatment for 16 hrs by DCFDA staining based analysis relative to control; assay type: functional
Pseudomonas aeruginosa [18] = experiment: Synergistic antibacterial activity against multi-drug resistant Pseudomonas aeruginosa CCARM 2095 assessed as fractional inhibitory concentration index incubated for 24 hrs in presence of Ciprofloxacin by broth microdilution method; assay type: functional
Pseudomonas aeruginosa [19] = experiment: Synergistic antibacterial activity against multi-drug resistant Pseudomonas aeruginosa CCARM 2095 assessed as fractional inhibitory concentration index incubated for 24 hrs in presence of Chloramphenicol by broth microdilution method; assay type: functional
Staphylococcus aureus [20] = experiment: Synergistic antibacterial activity against methicillin-resistant Staphylococcus aureus CCARM 3089 assessed as fractional inhibitory concentration index by measuring ratio of MIC of Oxacillin in presence of compound to MIC to Oxacillin incubated for 24 hrs by broth microdilution method; assay type: functional
Escherichia coli [21] = experiment: Antibacterial activity against Escherichia coli KCTC 1682 incubated for 24 hrs in presence of FeCl3 by CLSI based broth microdilution method; assay type: functional
Pseudomonas aeruginosa [22] = experiment: Synergistic antibacterial activity against multi-drug resistant Pseudomonas aeruginosa CCARM 2095 assessed as fractional inhibitory concentration index by measuring ratio of MIC of compound in presence of Oxacillin to MIC to compound incubated for 24 hrs by broth microdilution method; assay type: functional
Escherichia coli [23] = experiment: Antibacterial activity against Escherichia coli KCTC 1682 incubated for 24 hrs in presence of NH4Cl by CLSI based broth microdilution method; assay type: functional
Staphylococcus aureus [24] = experiment: Synergistic antibacterial activity against methicillin-resistant Staphylococcus aureus CCARM 3089 assessed as fractional inhibitory concentration index incubated for 24 hrs in presence of Oxacillin by broth microdilution method; assay type: functional
[25] = Cytotoxicity against mouse RAW264.7 cells assessed as cell viability at 30 uM incubated for 16 hrs by WST-8 assay relative to control; assay type: toxicity, cell-based; details: read-out: Activity
Pseudomonas aeruginosa [26] = experiment: Antibacterial activity against multidrug-resistant Pseudomonas aeruginosa CCARM 2109 incubated for 24 hrs by CLSI based broth microdilution method; assay type: functional
Staphylococcus aureus [27] = experiment: Synergistic antibacterial activity against methicillin-resistant Staphylococcus aureus CCARM 3089 incubated for 24 hrs in presence of Oxacillin by broth microdilution method; assay type: functional
Staphylococcus aureus [28] = experiment: Synergistic antibacterial activity against methicillin-resistant Staphylococcus aureus CCARM 3089 assessed as MIC of Ciprofloxacin incubated for 24 hrs by broth microdilution method; assay type: functional
Staphylococcus aureus [29] = experiment: Antibacterial activity against methicillin-resistant Staphylococcus aureus CCARM 3089 incubated for 24 hrs by broth microdilution method; assay type: functional
Staphylococcus aureus [30] = experiment: Synergistic antibacterial activity against methicillin-resistant Staphylococcus aureus CCARM 3089 assessed as fractional inhibitory concentration index by measuring ratio of MIC of Ciprofloxacin in presence of compound to MIC to Ciprofloxacin incubated for 24 hrs by broth microdilution method; assay type: functional
Staphylococcus aureus [31] = experiment: Synergistic antibacterial activity against methicillin-resistant Staphylococcus aureus CCARM 3089 assessed as fractional inhibitory concentration index incubated for 24 hrs in presence of Ciprofloxacin by broth microdilution method; assay type: functional
RAW264.7 [32] = experiment: Anti-inflammatory activity in mouse RAW264.7 cells assessed as decrease in LPS-induced IL-6 level at 5 uM pretreated for 1 hr followed by LPS treatment for 16 hrs by ELISA relative to control; assay type: functional; details: time 17 hrs
RAW264.7 [33] = experiment: Anti-inflammatory activity in mouse RAW264.7 cells assessed as decrease in LPS-induced IL-6 level at 2.5 uM pretreated for 1 hr followed by LPS treatment for 16 hrs by ELISA relative to control; assay type: functional; details: time 17 hrs

Row | Substance | MIC (Staphylococcus aureus [1]) | MIC (Enterococcus faecium) | HC10 [2] | FIC (Pseudomonas aeruginosa [3]) | MIC (Acinetobacter baumannii) | MIC (Escherichia coli [4]) | MIC (Pseudomonas aeruginosa [5]) | MIC (Pseudomonas aeruginosa [6]) | inhibition at 5 µM (RAW264.7 [7]) | fold change (FC) [8] | MIC (Pseudomonas aeruginosa [9]) | Retention_time [10] | MIC (Salmonella typhimurium) | Activity (Escherichia coli [11]) | fractional inhibitory concentration index (FICI) (Staphylococcus aureus [12]) | MIC (Pseudomonas aeruginosa [13]) | FIC (Pseudomonas aeruginosa [14]) | MIC [15] | FIC (Staphylococcus aureus [16]) | inhibition at 5 µM (RAW264.7 [17]) | also measured
1 | H-GVFRLKKWIKKVIKKWGK-NH2 | 2 µM | 8 µM | > 256 µM | 0.031 | 4 µM | 32 µM | 2 µM | 8 µM | 89% | ~ 5 | 512 µM | 20.06 min | 4 µM | ~100% | 0.5 | 4 µM | 0.125 | 8 µM | 0.25 | 40% | fractional inhibitory concentration index (FICI) (Pseudomonas aeruginosa [18]): 0.625; fractional inhibitory concentration index (FICI) (Pseudomonas aeruginosa [19]): 0.375; FIC (Staphylococcus aureus [20]): 0.25; MIC (Escherichia coli [21]): 32 µM; FIC (Pseudomonas aeruginosa [22]): 0.25; MIC (Escherichia coli [23]): 16 µM; fractional inhibitory concentration index (FICI) (Staphylococcus aureus [24]): 0.313; viability at 16 h, 30 µM [25]: > 80%; MIC (Pseudomonas aeruginosa [26]): 16 µM; MIC (Staphylococcus aureus [27]): 0.5 µM; MIC (Staphylococcus aureus [28]): 512 µM; MIC (Staphylococcus aureus [29]): 8 µM; FIC (Staphylococcus aureus [30]): 0.5; fractional inhibitory concentration index (FICI) (Staphylococcus aureus [31]): 0.75; inhibition at 5 µM (RAW264.7 [32]): 44.4%; inhibition at 2.5 µM (RAW264.7 [33]): 28.6%
2 | H-GVFRLKKWLKKVKKWGK-NH2 | 4 µM | 8 µM | > 256 µM | 0.031 | 4 µM | 32 µM | 2 µM | 8 µM | 91.6% | ~ 5 | 512 µM | 21.66 min | 8 µM | ~100% | 0.563 | 4 µM | 0.25 | 8 µM | 0.5 | 51.1% | fractional inhibitory concentration index (FICI) (Pseudomonas aeruginosa [18]): 0.75; fractional inhibitory concentration index (FICI) (Pseudomonas aeruginosa [19]): 0.375; FIC (Staphylococcus aureus [20]): 0.25; MIC (Escherichia coli [21]): 32 µM; FIC (Pseudomonas aeruginosa [22]): 0.25; MIC (Escherichia coli [23]): 16 µM; fractional inhibitory concentration index (FICI) (Staphylococcus aureus [24]): 0.313; viability at 16 h, 30 µM [25]: > 80%; MIC (Pseudomonas aeruginosa [26]): 8 µM; MIC (Staphylococcus aureus [27]): 0.5 µM; MIC (Staphylococcus aureus [28]): 512 µM; MIC (Staphylococcus aureus [29]): 8 µM; FIC (Staphylococcus aureus [30]): 0.5; fractional inhibitory concentration index (FICI) (Staphylococcus aureus [31]): 1; inhibition at 5 µM (RAW264.7 [32]): 99%; inhibition at 2.5 µM (RAW264.7 [33]): 98.5%
